We go through 20 molecules from patent publication US20230234917A1, “ASPARAGINE DERIVATIVES AND METHODS OF USING SAME” (priority 2020, published 2023).

Experiment [1] has as its target Full-length WT ClbP (Escherichia coli, UniProt Q0P7K6). Put plainly: ClbP molecular (purified protein) enzymatic inhibition assay, fluorogenic substrate. The format is biochemical, E. coli. The protocol:
ClbP Molecular (Purified Protein) Assay
1) Full-length WT ClbP was thawed on ice. A diluted enzyme solution (2 nM) was made by mixing 3.57 μL of enzyme with 20 mL of reaction buffer (50 mM Tris pH 8.0, 200 mM NaCl, 0.02% (w/v) n-dodecyl-b-D-maltoside (DDM)).
2) In a 96 well plate, the diluted protein solution (73.5 μL) was mixed with inhibitor (1.5 μL, of varying concentrations, see below) and preincubated for 15 min at room temperature. Then, reaction buffer (75 μL) containing 10 μM fluorogenic substrate was added to initiate the reaction. After addition of substrate, the final concentrations were 1 nM full-length WT ClbP, 5 μM fluorogenic substrate in 50 mM Tris pH 8.0, 200 mM NaCl, 0.02% (w/v) DDM, with either 0, 0.14, 0.41, 1.2, 3.7, 11, 33, or 100 μM inhibitor. For all conditions, the DMSO carryover was 2% (v/v) at the preincubation stage and 1% in the reaction stage. Compound No. III was always present as a control in each plate, and all compounds were tested in singlicate. In previous assays, the Km of the fluorogenic substrate was determined to be approximately 5 μM.
3) Immediately after addition of substrate to enzyme, the plate was transferred into a spectrophotometer held at room temperature. The fluorescence was recorded every 1.5 min for 15 min. The excitation wavelength was 360 nm (20 nm bandwidth), the emission wavelength was 440 nm (20 nm bandwidth), the optics position was bottom, the gain was extended, the light source was a xenon flash lamp, and the read speed was normal.
4) The linear portion of the fluorescence increase is at least from 0-6 min, so this time regime is used. The rate of fluorescence increase (A.U./min) for each well in an inhibitor series was normalized to the 0 μM inhibitor condition. The normalized activity as a function of inhibitor concentration was then fit to a three parameter IC50 curve in Graphpad Prism.
(§1) “A” indicates an IC50 value less than 100 μM, “B” indicates an IC50 between 100 and 300 μM, “C” indicates an IC50 above 300 μM.

Experiment [2] addresses T1, ClbP (Escherichia coli, UniProt Q0P7K6). Put plainly: ClbP whole cell activity (inhibition) assay, fluorogenic substrate. The format is cell-based, E. coli. The procedure:
Whole Cell Activity Assay
(§2) 1) E. coli ClbP+ were taken from a frozen stock and streaked onto BHI plates. They were grown aerobically at 37° C. overnight in the incubator.
(§3) 1) A single colony was selected from the plate and inoculated into 30 mL LB in a 50 mL conical vial eight times (240 mL total). The bacteria were grown aerobically overnight (16-20 h) at 37° C. on a nutator with rocking.
1) The saturated overnight culture was centrifuged to create a firm pellet (3,200 g, 10 min, 4° C.). In a biosafety cabinet, the supernatant was removed and then the pellet was resuspended in 30 mL sterile PBS.
2) The bacteria were centrifuged again (3,200 g, 10 min, 4° C.). The supernatant was removed, and the pellet was resuspended in sterile PBS buffer (6 mL) in each of the 8 tubes. This fivefold concentrated bacterial solution was the working solution.
3) The bacterial working solution (192 μL) was mixed with inhibitor (6 μL, final concentration was 300, 100, 33.3, 11.1, 3.7, 1.2, 0.4, or 0 μM). Fluorogenic substrate (2 μL, final concentration 5 μM) was immediately added across the plate to initiate the reaction. As a control, each plate contained Compound No. III in this dose response curve. The bacterial concentration was fivefold concentrated compared to the original saturated overnight culture. Carryover from DMSO was 4% (v/v). All compounds were tested in singlicate.
4) The plate was loaded into a spectrophotometer preheated to 37° C. The fluorescence was recorded every 2 min for 46 min. The excitation wavelength was 360 nm (20 nm bandwidth), the emission wavelength was 460 nm (20 nm bandwidth), the optics position was bottom, the gain was 65, the light source was a tungsten bulb, and the read speed was normal.
5) The linear portion of the fluorescence increase was 10-30 min. The rate of fluorescence increase (A.U./min) for each well in an inhibitor series was normalized to the 0 μM inhibitor condition. The normalized activity as a function of inhibitor concentration was then fit to a three parameter IC50 curve in Graphpad Prism.
as §1

Experiment [3] addresses T1, ClbP. As to the kind of experiment: ClbP cell lysate activity (inhibition) assay, fluorogenic substrate. In kind it is biochemical. The following applies: ClbP Lysate Inhibition Assay: IC50, E. coli ClbP+ lysozyme-EDTA lysates, 5 μM fluorogenic substrate, inhibitor 0-300 μM, 37° C., singlicate. The protocol:
Cell Lysate Activity Assay
as §2, §3
1) The saturated overnight culture was centrifuged to create a firm pellet (3,200 g, 10 min, 4° C.). The supernatant was removed and then the pellet was resuspended in 30 mL sterile PBS.
2) The bacteria were centrifuged again (3,200 g, 10 min, 4° C.). The supernatant was removed, and the pellet was resuspended in sterile PBS buffer (3 mL) in each 8 tubes to make a tenfold concentrated bacterial solution.
3) A lysozyme-EDTA (LE) solution was made in ddH2O (0.05 mg/mL lysozyme, 0.25 M EDTA).
4) For each of the eight tubes, LE solution (3 mL) was mixed with concentrated bacterial solution (3 mL). This mixture was incubated at 37° C. for 30 min to generate the lysates.
5) The lysates (192 μL) were mixed with inhibitor (6 μL, final concentration was 300, 100, 33.3, 11.1, 3.7, 1.2, 0.4, or 0 μM). Fluorogenic substrate (2 μL, final concentration 5 μM) was immediately added across the plate to initiate the reaction. As a control, each plate contained Compound No. III in this dose response curve. The final concentration of bacterial lysates was fivefold concentrated compared to the original saturated overnight culture. Carryover from DMSO was 4% (v/v). All compounds were tested in singlicate.
6) The plate was loaded into a spectrophotometer preheated to 37° C. The fluorescence was recorded every 2 min for 46 min. The excitation wavelength was 360 nm (20 nm bandwidth), the emission wavelength was 460 nm (20 nm bandwidth), the optics position was bottom, the gain was 65, the light source was a tungsten bulb, and the read speed was normal.
7) The linear portion of the fluorescence increase was 0-20 min. The rate of fluorescence increase (A.U./min) for each well in an inhibitor series was normalized to the 0 μM inhibitor condition. The normalized activity as a function of inhibitor concentration was then fit to a three parameter IC50 curve in Graphpad Prism.
as §1

Bounds are passed on as bounds.

Regarding `CCCCCCCC(=O)N[C@H](CC(N)=O)C(=O)NCCC1CCNCC1` [Compound CCXVIII], the IC50 in experiment [1] is 100 to 300 µM; in experiment [2], less than 100 µM; in experiment [3], less than 100 µM.

Regarding `NC(=O)C[C@@H](NC(=O)CCCCC(F)(F)F)C(=O)NCCc1ccc(O)cc1` [Compound CCXCII], the IC50 in experiment [1], in experiment [2] and in experiment [3] was less than 100 µM each time.

For `CCCCCCCC(=O)N[C@@H](CN[C@@H](C)C(=O)OC)CC(N)=O` [Compound CCLXXX], the IC50 in experiment [1] was 100 to 300 µM; in experiment [2], more than 300 µM; in experiment [3], more than 300 µM.

As to `CCCCCCCCCC(=O)N[C@H](CC(N)=O)C(=O)NCCc1ccc(O)cc1` [Compound CCXXI], the IC50 in experiment [1], in experiment [2] and in experiment [3] was less than 100 µM in each case.

`CN1CCC(CCCC(=O)N[C@H](CC(N)=O)C(=O)NCCc2ccc(O)cc2)CC1` [Compound CCCVIII]: the IC50 was more than 300 µM in experiment [1], less than 100 µM in experiment [2] and more than 300 µM in experiment [3].

On to `CCCCCCCC(=O)N[C@H](CC(N)=O)C(=O)NCCc1cccc(OC)c1` [Compound CCXLVIII], for which the IC50 was less than 100 µM in experiment [1], 100 to 300 µM in experiment [2] and less than 100 µM in experiment [3].

Regarding `CCCCCCCC(=O)N[C@](C)(CC(N)=O)C(=O)NCCc1ccc(O)cc1` [Compound CCCXI], the IC50 in experiment [1], in experiment [2] and in experiment [3] was more than 300 µM throughout.

`CCCCCCCC(=O)N[C@H]1CC(=O)NC1(O)C(=O)NCc1ccccc1` (some centres unmarked) [Compound CCLXXXIX]: the values for the IC50 in experiment [1], in experiment [2] and in experiment [3] were less than 100 µM, 100 to 300 µM and 100 to 300 µM, respectively.

On to `NC(=O)C[C@@H](NC(=O)CCCc1ccccc1)C(=O)NCCc1ccccc1` [Compound CCLXIX], for which the IC50 in experiment [1], in experiment [2] and in experiment [3] was less than 100 µM throughout.

For `CCCCCCCC(=O)N[C@H](CC(N)=O)C(=O)O[C@@H](C)C(=O)OC` [Compound LXXVI], the IC50 was 100 to 300 µM in experiment [1], less than 100 µM in experiment [2] and less than 100 µM in experiment [3].

With `CCCC(=O)N[C@H](CC(N)=O)C(=O)NCCc1ccccc1` [Compound CCLXVIII], the IC50 in experiment [1] was 100 to 300 µM; in experiment [2], less than 100 µM; in experiment [3], more than 300 µM.

In the case of `CCCCCCCC(=O)N[C@H](CC(N)=O)C(=O)NCCc1ccc(Cl)cc1` [Compound CXCIV], the IC50 in experiment [1], in experiment [2] and in experiment [3] was less than 100 µM in each case.

Turning to `CCCCCCCC(=O)N[C@H](CC(N)=O)c1nnc(CCc2ccccc2)o1` [Compound CCXI], the values for the 50% inhibitory concentration (IC50) in experiment [1], in experiment [2] and in experiment [3] were 100 to 300 µM, more than 300 µM and more than 300 µM, respectively.

As for `CCCCCC(=O)N[C@H](CC(N)=O)C(=O)NCCc1ccc(C(F)(F)F)cc1` [Compound CCLIX], the IC50 in experiment [1] and in experiment [3] was 100 to 300 µM each time.

In the case of `NC(=O)C[C@@H](NC(=O)/C=C/CC1CCCC1)C(=O)NCCc1ccccc1` [Compound CCLXII], the figures for the IC50 in experiment [1], in experiment [2] and in experiment [3] were less than 100 µM, more than 300 µM and more than 300 µM, respectively.

For the molecule `CCCCCCCCCCCC(=O)N[C@H](CC(N)=O)C(=O)NCCc1ccc(O)cc1` [Compound CCCVII], the concentration for half-maximal inhibition (IC50) in experiment [1], in experiment [2] and in experiment [3] was less than 100 µM in each case.

Turning to `CCCCCCCC(=O)N[C@H](CC(N)=O)C(=O)NCCc1ccccc1O` [Compound CCXXIV], the IC50 in experiment [1], in experiment [2] and in experiment [3] was less than 100 µM each time.

Consider `CCCCCCCC(=O)N[C@H](CC(N)=O)C(=O)NCCc1ccc(OC)nc1` [Compound CCXXXVII], for which the IC50 in experiment [1], in experiment [2] and in experiment [3] was less than 100 µM in each case.

Take `CCCCCCCNC(=O)[C@H](CC(N)=O)NC(=O)OCC` [Compound XCIX]: the IC50 in experiment [2] and in experiment [3] was more than 300 µM throughout.

Take `CCCCCCCC(=O)N[C@H](CC(N)=O)C(=O)NCCc1ccc(O)cc1` [Compound CC]: in experiment [1], the half-maximal inhibitory concentration (IC50) was less than 100 µM.
